# Data reported in doi:10.1101/2021.01.22.427858v1 (biorxiv, 2021).
# Biological target: T1, Human Serum Albumin (HSA) (Homo sapiens, UniProt P02768)
# Experiment: biochemical
# Assay type: binding
# Conditions: not given
# T1 sequence (P02768 25-609): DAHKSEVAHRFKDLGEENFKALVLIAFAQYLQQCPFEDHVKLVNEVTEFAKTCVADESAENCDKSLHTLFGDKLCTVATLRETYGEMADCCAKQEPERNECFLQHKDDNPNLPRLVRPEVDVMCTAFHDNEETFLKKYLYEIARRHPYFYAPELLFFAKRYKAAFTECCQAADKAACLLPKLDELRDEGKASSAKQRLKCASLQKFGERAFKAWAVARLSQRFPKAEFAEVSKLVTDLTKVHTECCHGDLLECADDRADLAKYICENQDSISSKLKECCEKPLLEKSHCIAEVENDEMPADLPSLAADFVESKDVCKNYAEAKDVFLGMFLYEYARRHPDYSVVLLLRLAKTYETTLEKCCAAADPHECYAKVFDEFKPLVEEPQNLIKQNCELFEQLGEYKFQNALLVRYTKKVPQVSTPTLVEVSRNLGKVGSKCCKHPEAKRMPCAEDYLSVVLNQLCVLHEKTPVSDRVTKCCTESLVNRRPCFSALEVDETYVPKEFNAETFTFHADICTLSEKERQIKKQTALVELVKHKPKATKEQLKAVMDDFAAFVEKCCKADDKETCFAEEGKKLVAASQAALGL
row,SMILES,Kd [µM]
1,Cc1c(C2(c3cc(Br)c(O)c(Br)c3C)OS(=O)(=O)c3ccccc32)cc(Br)c(O)c1Br [Bromocresol Green],3.31 ± 1.7
2,O=C1OC2(c3ccc(O)cc3Oc3cc(O)ccc32)c2ccccc21 [Fluorescein],3.31 ± 1.7

# Biological target: T1, Human Serum Albumin (HSA)
# Experiment: differential scanning calorimetry
# Assay type: binding
# Conditions: not given
row,SMILES,KD1
1,CN(C)C(=N)NC(=N)N [Metformin],2.01 ± 0.43 10^-6 M

# Biological target: T1, Human Serum Albumin (HSA)
# Experiment: not given
# Conditions: binder
row,SMILES,dTm (C) [°C]
1,Cc1c(C2(c3cc(Br)c(O)c(Br)c3C)OS(=O)(=O)c3ccccc32)cc(Br)c(O)c1Br [Bromocresol Green],6.29
2,C[C@H]1O[C@@H](O[C@H]2[C@@H](O)C[C@H](O[C@H]3[C@@H](O)C[C@H](O[C@H]4CC[C@@]5(C)[C@H](CC[C@@H]6[C@@H]5CC[C@]5(C)[C@@H](C7=CC(=O)OC7)CC[C@]65O)C4)O[C@@H]3C)O[C@@H]2C)C[C@H](O)[C@@H]1O [Digitoxin],3.92
3,COc1ccc2cc([C@H](C)C(=O)O)ccc2c1 [Naproxen],5.52

# Same assay, conditions: ligand concentration not given; binder
row,SMILES,dTm (C) [°C]
1,C=CC1=C(C)/C(=C/c2[nH]c(Cc3[nH]c(/C=C4\NC(=O)C(C)=C4C=C)c(C)c3CCC(=O)O)c(CCC(=O)O)c2C)NC1=O [Bilirubin],0.30
2,CC(NC(C)(C)C)C(=O)c1cccc(Cl)c1 (stereo not drawn) [Buproprion],0.62
3,Cn1c(=O)c2c(ncn2C)n(C)c1=O [Caffeine],0.47
4,C[C@H](CS)C(=O)N1CCC[C@H]1C(=O)O [Captopril],-0.41
5,CCN(CC)CCCC(C)Nc1ccnc2cc(Cl)ccc12 (stereo not drawn) [Chloroquine],1.43
6,CCCCCCCCCC(=O)O [Decanoic Acid],24.56
7,O=C1OC2(c3ccc(O)cc3Oc3cc(O)ccc32)c2ccccc21 [Fluorescein],7.95
8,CN(C)C(=N)NC(=N)N [Metformin],-0.31
9,COCCc1ccc(OCC(O)CNC(C)C)cc1 (stereo not drawn) [Metoprolol],-0.40
10,CCCCNc1ccc(C(=O)OCCN(C)C)cc1 [Tetracaine],3.16
11,C[C@]12CC[C@@H]3c4ccc(O)cc4CC[C@H]3[C@@H]1CC[C@@H]2O [β-Estradiol],0.92

# Biological target: T1, Human Serum Albumin (HSA)
# Experiment: differential scanning calorimetry, bi-dose-response fit
# Conditions: not given
row,SMILES,KD1
1,C[CH2][Hg][S]c1ccccc1C(=O)O [Thimerosal],3.13 ± 0.43 10^-6 M
